Bounds are passed on as bounds.

One assay deals with His-Brd4(44-477) (Homo sapiens (Human), UniProt O60885). Briefly: TR-FRET in-vitro binding assay for BRD4. The conditions noted are these: biochemical. In short, it runs like this: (§1)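 Bromodomain protein (45 nM in its addition solution) and tetra-acetylated histone H4 peptide (AcK5/8/12/16; 60 nM in its addition solution) were incubated with compounds for 35 min at 30 °C in 50 mM HEPES pH 7.5, 50 mM NaCl, 0.005% Tween20, 0.1% BSA. Eu-anti-His6 plus streptavidin-allophycocyanin detection followed, with TR-FRET read-out.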
A general note: Time-resolved FRET reads energy transfer from a long-lived donor to a nearby acceptor.

The target of another assay is His-Brd2(60-472) (Homo sapiens (Human), UniProt P25440). Nature of the assay: TR-FRET in-vitro binding assay for BRD2. The conditions noted are these: biochemical. The method, boiled down:
as §1

A further assay addresses His-Brd3(20-477) (Homo sapiens (Human), UniProt Q15059). Nature of the assay: TR-FRET in-vitro binding assay for BRD3. The conditions noted are these: biochemical. The method, boiled down:
as §1

For assay [1], the target named is His-CREBBP (1081-1197) bromodomain (Homo sapiens (Human), UniProt Q92793). Briefly: AlphaScreen in-vitro binding assay for CREBBP. The conditions noted are these: biochemical. In short, it runs like this:
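Ni-chelate acceptor and streptavidin donor beads (45 µg/mL each, in 50 mM HEPES pH 7.5, 150 mM NaCl, 0.02% BSA) were then added for 60 min at room temperature. IC50 came from 8-point non-linear regression.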

For the next assay, the system named is MV-4-11 cells. Nature of the assay: Cell growth inhibition assay (CellTiter-Glo), MV-4-11. In kind it is cell-based. The conditions noted are these: Homo sapiens, MV4-11, read-out: MV-4-11 TGI. The method, boiled down:
(§2)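 Dose-response over 3-fold dilutions from 10 μM; 0.1% DMSO control. Endpoint: CellTiter-Glo ATP signal, background-subtracted and day 0-corrected.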
A general note: Cellular ATP, detected with luciferase, serves as a proxy for viable cell number.

The test system of the next assay is THP-1 cells. Nature of the assay: Cell growth inhibition assay (CellTiter-Glo), THP-1. Type of assay: cell-based. The conditions noted are these: Homo sapiens, read-out: THP-1 TGI. In short, it runs like this: as §2
The next assay concerns K-562 cells. Nature of the assay: Cell growth inhibition assay (CellTiter-Glo), K-562. Type of assay: cell-based, human. The conditions noted are these: Homo sapiens, K562, read-out: K-562 TGI. In short, it runs like this: as §2

Sequence of His-Brd2(60-472) (P25440 60-472): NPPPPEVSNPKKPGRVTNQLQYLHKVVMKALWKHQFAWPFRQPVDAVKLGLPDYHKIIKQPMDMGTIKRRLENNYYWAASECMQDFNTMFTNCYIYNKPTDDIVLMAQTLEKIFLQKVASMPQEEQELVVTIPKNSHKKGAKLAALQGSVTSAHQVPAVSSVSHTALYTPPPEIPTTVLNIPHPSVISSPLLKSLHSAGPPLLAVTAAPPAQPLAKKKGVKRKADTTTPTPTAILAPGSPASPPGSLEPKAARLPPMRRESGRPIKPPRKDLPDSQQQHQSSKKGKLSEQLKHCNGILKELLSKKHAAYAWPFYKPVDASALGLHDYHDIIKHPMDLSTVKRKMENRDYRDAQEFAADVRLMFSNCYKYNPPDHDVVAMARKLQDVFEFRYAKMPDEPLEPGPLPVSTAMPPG
Sequence of His-Brd3(20-477) (Q15059 20-477): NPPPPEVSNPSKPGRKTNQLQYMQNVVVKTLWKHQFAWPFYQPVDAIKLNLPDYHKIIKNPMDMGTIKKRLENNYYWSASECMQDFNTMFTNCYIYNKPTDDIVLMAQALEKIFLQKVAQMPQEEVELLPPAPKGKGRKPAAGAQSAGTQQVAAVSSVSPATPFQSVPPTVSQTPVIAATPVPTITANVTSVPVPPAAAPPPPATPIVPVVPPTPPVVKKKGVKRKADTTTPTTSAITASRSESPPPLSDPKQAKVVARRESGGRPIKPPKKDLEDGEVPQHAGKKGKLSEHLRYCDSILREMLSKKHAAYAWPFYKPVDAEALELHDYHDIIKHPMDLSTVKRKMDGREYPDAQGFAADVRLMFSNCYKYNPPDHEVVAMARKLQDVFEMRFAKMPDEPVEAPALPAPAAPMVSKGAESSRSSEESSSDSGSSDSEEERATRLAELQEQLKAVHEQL
Sequence of His-CREBBP (1081-1197) bromodomain (Q92793 1081-1197): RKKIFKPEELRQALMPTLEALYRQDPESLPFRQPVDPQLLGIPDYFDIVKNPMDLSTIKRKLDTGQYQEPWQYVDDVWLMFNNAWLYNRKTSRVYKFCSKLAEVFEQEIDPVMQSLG

For orientation: IC50 means the concentration at which inhibition is half-maximal. Higher therefore signals a need for much substance. `Cc1n[nH]c2c1C(c1ccc(F)cc1F)N(c1cc(C)c3nnc(C)n3c1)C2=O` (centres unmarked) [Example 172, 4-(2,4-difluorophenyl)-5-(3,8-dimethyl-[1,2,4]triazolo[4,3-a]pyridin-6-yl)-3-methyl-4,5-dihydropyrrolo[3,4-c]pyrazol-6(2H)-one]: the IC50 at His-Brd4(44-477) is 97 nM; on His-Brd2(60-472), 220 nM; at His-Brd3(20-477), 110 nM; in assay [1] it was > 37000 nM. Further, the IC (total growth inhibition) in the assay with MV-4-11 cells was 0.323 µM; in the assay on THP-1 cells it was 0.782 µM; with K-562 cells it was > 10 µM.
As to `Cn1cc(N2C(=O)c3c(cnn3C3CC3)C2c2ccc(Cl)cc2)cc(Cl)c1=O` (centres unmarked) [Example 35, 5-(5-chloro-1-methyl-6-oxo-1,6-dihydropyridin-3-yl)-4-(4-chlorophenyl)-1-cyclopropyl-4,5-dihydropyrrolo[3,4-c]pyrazol-6(1H)-one], the IC50 stood at 150 nM on His-Brd4(44-477), 140 nM at His-Brd2(60-472), 160 nM at His-Brd3(20-477) and 7400 nM in assay [1]. The IC (total growth inhibition) with MV-4-11 cells was 0.23 µM; in the assay on THP-1 cells, 0.427 µM; in the assay with K-562 cells, > 10 µM.
As to `Cc1nn(C)c2c1C(c1ccc(Cl)cc1)N(c1cc(C)c(=O)n(C)c1)C2=O` (centres unmarked) [Example 57, 4-(4-chlorophenyl)-5-(1,5-dimethyl-6-oxo-1,6-dihydropyridin-3-yl)-1,3-dimethyl-4,5-dihydropyrrolo[3,4-c]pyrazol-6(1H)-one], the IC50 worked out at 120 nM on His-Brd4(44-477), 270 nM on His-Brd2(60-472), 130 nM at His-Brd3(20-477) and 6800 nM in assay [1]. Besides, the IC (total growth inhibition) in the assay on MV-4-11 cells is 0.109 µM; in the assay on THP-1 cells, 0.24 µM; in the assay with K-562 cells it was > 10 µM.
As for `Cc1nn(C2CC2)c2c1C(c1ccc(Cl)cc1)N(c1cc(C)c3nnc(C(F)F)n3n1)C2=O` (centres unmarked) [Example 195, 4-(4-chlorophenyl)-1-cyclopropyl-5-(3-(difluoromethyl)-8-methyl-[1,2,4]triazolo[4,3-b]pyridazin-6-yl)-3-methyl-4,5-dihydropyrrolo[3,4-c]pyrazol-6(1H)-one], the IC50 on His-Brd4(44-477) is < 11 nM; on His-Brd2(60-472), 20 nM; at His-Brd3(20-477), 16 nM; in assay [1], > 37000 nM. Moreover, the IC (total growth inhibition) in the assay with MV-4-11 cells is 0.0452 µM; in the assay with THP-1 cells it was 0.0804 µM; in the assay with K-562 cells, > 10 µM.
For `Cc1nn(C(C)C)c2c1C(c1ccc(Cl)cc1)N(c1cc(C)c(=O)n(C)c1)C2=O` (centres unmarked) [Example 63, 4-(4-chlorophenyl)-5-(1,5-dimethyl-6-oxo-1,6-dihydropyridin-3-yl)-1-isopropyl-3-methyl-4,5-dihydropyrrolo[3,4-c]pyrazol-6(1H)-one], the IC50 at His-Brd4(44-477) was 90 nM; on His-Brd2(60-472) it was 130 nM; on His-Brd3(20-477) it was 88 nM; in assay [1], 2500 nM. In addition, the values for the IC (total growth inhibition) in the assay on MV-4-11 cells, with THP-1 cells and in the assay with K-562 cells were 0.0509 µM, 0.115 µM and > 10 µM, respectively.
For the compound `Cc1c2c(nn1C(C)C)C(=O)N(c1cc(Cl)c(=O)n(C)c1)C2c1ccc(Cl)cc1` (centres unmarked) [Example 65, 5-(5-chloro-1-methyl-6-oxo-1,6-dihydropyridin-3-yl)-4-(4-chlorophenyl)-2-isopropyl-3-methyl-4,5-dihydropyrrolo[3,4-c]pyrazol-6(2H)-one], the IC50 on His-Brd4(44-477) came out at 200 nM; at His-Brd2(60-472) it was 240 nM; at His-Brd3(20-477) it was 130 nM; in assay [1], 420 nM. Besides, the IC (total growth inhibition) in the assay on MV-4-11 cells was 0.109 µM; in the assay on THP-1 cells, 0.217 µM; with K-562 cells, > 10 µM.
In the case of `COc1ncc(-n2nc3c(c2C(F)(F)F)C(c2ccc(Cl)cc2)N(c2cc(Cl)c(=O)n(C)c2)C3=O)c(OC)n1` (centres unmarked) [Example 47, 5-(5-chloro-1-methyl-6-oxo-1,6-dihydropyridin-3-yl)-4-(4-chlorophenyl)-2-(2,4-dimethoxypyrimidin-5-yl)-3-(trifluoromethyl)-4,5-dihydropyrrolo[3,4-c]pyrazol-6(2H)-one], the IC50 came out at 270 nM at His-Brd4(44-477), 210 nM at His-Brd2(60-472), 280 nM on His-Brd3(20-477) and 1500 nM in assay [1]. Also, the IC (total growth inhibition) with MV-4-11 cells is 0.158 µM; with THP-1 cells, 0.755 µM; in the assay on K-562 cells, > 10 µM.
Turning to `CCc1nn(-c2cnc(OC)nc2OC)c2c1C(c1ccc(Cl)cc1)N(c1cc(C)c(=O)n(C)c1)C2=O` (centres unmarked) [Example 60, 4-(4-chlorophenyl)-1-(2,4-dimethoxypyrimidin-5-yl)-5-(1,5-dimethyl-6-oxo-1,6-dihydropyridin-3-yl)-3-ethyl-4,5-dihydropyrrolo[3,4-c]pyrazol-6(1H)-one], the IC50 is 140 nM at His-Brd4(44-477), 160 nM on His-Brd2(60-472), 120 nM at His-Brd3(20-477) and 8800 nM in assay [1]. Further, the values for the IC (total growth inhibition) with MV-4-11 cells, in the assay on THP-1 cells and in the assay with K-562 cells were 0.154 µM, 0.302 µM and > 10 µM, respectively.
For the compound `Cc1nn(C2CC2)c2c1C(c1ccc(Cl)cc1F)N(c1cc(C)c(=O)n(C)c1)C2=O` (centres unmarked) [Example 179, 4-(4-chloro-2-fluorophenyl)-1-cyclopropyl-5-(1,5-dimethyl-6-oxo-1,6-dihydropyridin-3-yl)-3-methyl-4,5-dihydropyrrolo[3,4-c]pyrazol-6(1H)-one], the IC50 was 95 nM at His-Brd4(44-477), 92 nM on His-Brd2(60-472), 90 nM on His-Brd3(20-477) and 3900 nM in assay [1]. Besides, the IC (total growth inhibition) is 0.12 µM in the assay with MV-4-11 cells, 0.272 µM in the assay with THP-1 cells and > 10 µM in the assay with K-562 cells.
Take `CCc1c2c(nn1C1CC1)C(=O)N(c1cc(C)c(=O)n(C)c1)C2c1ccc(Cl)cc1` (centres unmarked) [Example 68]: the IC50 at His-Brd4(44-477) is 44 nM; at His-Brd2(60-472), 37 nM; on His-Brd3(20-477) it was 40 nM; in assay [1] it was 950 nM. Further, the results for the IC (total growth inhibition) in the assay with MV-4-11 cells, in the assay with THP-1 cells and in the assay with K-562 cells were 0.0692 µM, 0.117 µM and > 10 µM, respectively.
As for `CCn1nc2c(c1C)C(c1ccc(Cl)cc1F)N(c1cc(C)c3nnc(C)n3c1)C2=O` (centres unmarked) [Example 186, 4-(4-chloro-2-fluorophenyl)-5-(3,8-dimethyl-[1,2,4]triazolo[4,3-a]pyridin-6-yl)-2-ethyl-3-methyl-4,5-dihydropyrrolo[3,4-c]pyrazol-6(2H)-one], the IC50 worked out at 69 nM on His-Brd4(44-477), 140 nM on His-Brd2(60-472), 61 nM at His-Brd3(20-477) and 6100 nM in assay [1]. The results for the IC (total growth inhibition) in the assay with MV-4-11 cells, with THP-1 cells and in the assay with K-562 cells were 0.0882 µM, 0.145 µM and > 10 µM, respectively.
For the compound `CCn1nc(C)c2c1C(=O)N(c1cc(C)c(=O)n(C)c1)C2c1ccc(Cl)cc1F` (centres unmarked) [Example 170, 4-(4-chloro-2-fluorophenyl)-5-(1,5-dimethyl-6-oxo-1,6-dihydropyridin-3-yl)-1-ethyl-3-methyl-4,5-dihydropyrrolo[3,4-c]pyrazol-6(1H)-one], the IC50 at His-Brd4(44-477) is 15 nM; on His-Brd2(60-472), 16 nM; at His-Brd3(20-477), 13 nM; in assay [1] it was 630 nM. Moreover, the results for the IC (total growth inhibition) in the assay with MV-4-11 cells, in the assay on THP-1 cells and in the assay with K-562 cells were 0.0159 µM, 0.0331 µM and > 10 µM, respectively.
Regarding `COc1ncccc1-n1nc(C)c2c1C(=O)N(c1cc(C)c(=O)n(C)c1)C2c1ccc(Cl)cc1` (centres unmarked) [Example 71, 4-(4-chlorophenyl)-5-(1,5-dimethyl-6-oxo-1,6-dihydropyridin-3-yl)-1-(2-methoxypyridin-3-yl)-3-methyl-4,5-dihydropyrrolo[3,4-c]pyrazol-6(1H)-one], the IC50 turned out to be 53 nM at His-Brd4(44-477), 41 nM on His-Brd2(60-472), 58 nM at His-Brd3(20-477) and 5900 nM in assay [1]. The IC (total growth inhibition) with MV-4-11 cells is 0.103 µM; with THP-1 cells, 0.178 µM; in the assay on K-562 cells it was > 10 µM.
In the case of `COc1ncc(-n2nc3c(c2C(C)C)[C@@H](c2ccc(Cl)cc2)N(c2cc(C)c4onc(C)c4c2)C3=O)c(OC)n1` [Example 62, (R)-4-(4-chlorophenyl)-2-(2,4-dimethoxypyrimidin-5-yl)-5-(3,7-dimethylbenzo[d]-isoxazol-5-yl)-3-isopropyl-4,5-dihydropyrrolo[3,4-c]pyrazol-6(2H)-one], the IC50 at His-Brd4(44-477) amounted to 67 nM; at His-Brd2(60-472), 60 nM; at His-Brd3(20-477) it was 72 nM; in assay [1] it was 1700 nM. Moreover, the IC (total growth inhibition) is 0.105 µM in the assay with MV-4-11 cells, 0.174 µM in the assay on THP-1 cells and > 10 µM with K-562 cells.

The record behind these values is patent US8975417B2, “Pyrazolopyrrolidine derivatives and their use in the treatment of disease” (Novartis AG, priority 2013, dated 2015).
